From patent US10597388B2, “Pyridazinone herbicides” (FMC CORPORATION, priority 2014, dated 2020)

What was measured:
Test in all cases: Test D controlled growth environment herbicide test, pre- and postemergence
Assay type in all cases: in vivo
[1] = system: blackgrass (Alopecurus myosuroides)
Outline: (§1)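 Pre-emergence: seeds sown in silt loam soil were sprayed with compound in a non-phytotoxic solvent mix containing surfactant. Post-emergence: plants at 2 to 18 cm (1- to 4-leaf stage) in peat moss/vermiculite medium got the same formulation. Visual 0–100 rating versus controls after 14 to 21 d.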

[2] = system: field violet (Viola arvensis)
Outline: as §1

[3] = system: lambsquarters (Chenopodium album)
Outline: as §1

[4] = system: wheat, winter (winter wheat, Triticum aestivum)
Outline: as §1

[5] = system: canarygrass (Phalaris minor)
Outline: as §1

kochia (Kochia scoparia) = system: kochia (Kochia scoparia)
Outline: as §1

[6] = system: foxtail, green (green foxtail, Setaria viridis)
Outline: as §1

[7] = system: chickweed (common chickweed, Stellaria media)
Outline: as §1

[8] = system: deadnettle (henbit deadnettle, Lamium amplexicaule)
Outline: as §1

[9] = system: ryegrass, Italian (Italian ryegrass, Lolium multiflorum)
Outline: as §1

[10] = system: wheat, spring (spring wheat, Triticum aestivum)
Outline: as §1

[11] = system: windgrass (Apera spica-venti)
Outline: as §1

[12] = system: Russian thistle (Salsola kali)
Outline: as §1

[13] = Postemergence, 31 g ai/ha, scale 0 to 100 (0 no effect, 100 complete control)
[14] = Postemergence, 125 g ai/ha, visual rating on scale 0 (no effect) to 100 (complete control), 14 to 21 d
[15] = Postemergence, 250 g ai/ha, scale 0 to 100 (0 no effect, 100 complete control)
[16] = Preemergence, 62 g ai/ha, scale 0 to 100 (0 no effect, 100 complete control)
[17] = Preemergence, 125 g ai/ha, scale 0 to 100 (0 no effect, 100 complete control)
[18] = Preemergence, 250 g ai/ha, scale 0 to 100 (0 no effect, 100 complete control)
[19] = postemergence, 62 g ai/ha, scale 0 to 100, 0 no effect, 100 complete control

COC(=O)Oc1c(C)nn(C)c(=O)c1-c1c(C)sc2c(C)cc(C)cc12 [Compound 81]
Blackgrass plant response rating [1, 13]: 65 | Plant response rating, Blackgrass [1, 14]: 80 | Plant response rating, Blackgrass [1, 15]: 85 | Plant response rating (scale of 0 to 100), Blackgrass ([1]; Preemergence, 31 g ai/ha): 55 | Plant response rating, Blackgrass [1, 16]: 60 | Plant response rating, Blackgrass [1, 17]: 70 | Plant response rating, Blackgrass [1, 18]: 85 | Plant response rating, Blackgrass [1, 19]: 75 | Field Violet plant response rating [2, 13]: 75 | Plant response rating, Field Violet [2, 14]: 100 | Plant response rating, Field Violet [2, 15]: 100 | Plant response rating (scale of 0 to 100), Field Violet ([2]; Preemergence, 31 g ai/ha): 75 | Plant response rating, Field Violet [2, 16]: 80 | Plant response rating, Field Violet [2, 17]: 100 | Plant response rating, Field Violet [2, 18]: 95 | Plant response rating, Field Violet [2, 19]: 85 | Lambsquarters plant response rating [3, 13]: 95 | Plant response rating, Lambsquarters [3, 14]: 100 | Plant response rating, Lambsquarters [3, 15]: 100 | Plant response rating (scale of 0 to 100), Lambsquarters ([3]; Preemergence, 31 g ai/ha): 55 | Plant response rating, Lambsquarters [3, 16]: 95 | Plant response rating, Lambsquarters [3, 17]: 70 | Plant response rating, Lambsquarters [3, 18]: 95 | Plant response rating, Lambsquarters [3, 19]: 100 | Wheat, Winter plant response rating [4, 13]: 0 | Plant response rating, Wheat, Winter [4, 14]: 5 | Plant response rating, Wheat, Winter [4, 15]: 5 | Plant response rating (scale of 0 to 100), Wheat, Winter ([4]; Preemergence, 31 g ai/ha): 0 | Plant response rating, Wheat, Winter [4, 16]: 0 | Plant response rating, Wheat, Winter [4, 17]: 5 | Plant response rating, Wheat, Winter [4, 18]: 5 | Plant response rating, Wheat, Winter [4, 19]: 0 | Canarygrass plant response rating [5, 13]: 75 | Plant response rating, Canarygrass [5, 14]: 95 | Plant response rating, Canarygrass [5, 15]: 100 | Plant response rating (scale of 0 to 100), Canarygrass ([5]; Preemergence, 31 g ai/ha): 75 | Plant response rating, Canarygrass [5, 16]: 65 | Plant response rating, Canarygrass [5, 17]: 95 | Plant response rating, Canarygrass [5, 18]: 100 | Plant response rating, Canarygrass [5, 19]: 85 | Kochia plant response rating (kochia (Kochia scoparia); [13]): 60 | Plant response rating, Kochia (kochia (Kochia scoparia); [14]): 90 | Plant response rating, Kochia (kochia (Kochia scoparia); [15]): 95 | Plant response rating (scale of 0 to 100), Kochia (kochia (Kochia scoparia); Preemergence, 31 g ai/ha): 0 | Plant response rating, Kochia (kochia (Kochia scoparia); [16]): 0 | Plant response rating, Kochia (kochia (Kochia scoparia); [17]): 25 | Plant response rating, Kochia (kochia (Kochia scoparia); [18]): 15 | Plant response rating, Kochia (kochia (Kochia scoparia); [19]): 85 | Foxtail, Green plant response rating [6, 13]: 80 | Plant response rating, Foxtail, Green [6, 14]: 95 | Plant response rating, Foxtail, Green [6, 15]: 100 | Plant response rating (scale of 0 to 100), Foxtail, Green ([6]; Preemergence, 31 g ai/ha): 75 | Plant response rating, Foxtail, Green [6, 16]: 65 | Plant response rating, Foxtail, Green [6, 17]: 100 | Plant response rating, Foxtail, Green [6, 18]: 100 | Plant response rating, Foxtail, Green [6, 19]: 95 | Chickweed plant response rating [7, 13]: 100 | Plant response rating, Chickweed [7, 14]: 100 | Plant response rating, Chickweed [7, 15]: 100 | Plant response rating (scale of 0 to 100), Chickweed ([7]; Preemergence, 31 g ai/ha): 95 | Plant response rating, Chickweed [7, 16]: 100 | Plant response rating, Chickweed [7, 17]: 100 | Plant response rating, Chickweed [7, 18]: 100 | Plant response rating, Chickweed [7, 19]: 100 | Deadnettle plant response rating [8, 13]: 15 | Plant response rating, Deadnettle [8, 14]: 35 | Plant response rating, Deadnettle [8, 15]: 60 | Plant response rating (scale of 0 to 100), Deadnettle ([8]; Preemergence, 31 g ai/ha): 0 | Plant response rating, Deadnettle [8, 16]: 0 | Plant response rating, Deadnettle [8, 17]: 5 | Plant response rating, Deadnettle [8, 18]: 55 | Plant response rating, Deadnettle [8, 19]: 35 | Ryegrass, Italian plant response rating [9, 13]: 85 | Plant response rating, Ryegrass, Italian [9, 14]: 95 | Plant response rating, Ryegrass, Italian [9, 15]: 95 | Plant response rating (scale of 0 to 100), Ryegrass, Italian ([9]; Preemergence, 31 g ai/ha): 55 | Plant response rating, Ryegrass, Italian [9, 16]: 65 | Plant response rating, Ryegrass, Italian [9, 17]: 85 | Plant response rating, Ryegrass, Italian [9, 18]: 100 | Plant response rating, Ryegrass, Italian [9, 19]: 90 | Wheat, Spring plant response rating [10, 13]: 0 | Plant response rating, Wheat, Spring [10, 14]: 0 | Plant response rating, Wheat, Spring [10, 15]: 20 | Plant response rating (scale of 0 to 100), Wheat, Spring ([10]; Preemergence, 31 g ai/ha): 0 | Plant response rating, Wheat, Spring [10, 16]: 0 | Plant response rating, Wheat, Spring [10, 17]: 0 | Plant response rating, Wheat, Spring [10, 18]: 40 | Plant response rating, Wheat, Spring [10, 19]: 0 | Windgrass plant response rating [11, 13]: 70 | Plant response rating, Windgrass [11, 14]: 90 | Plant response rating, Windgrass [11, 15]: 95 | Plant response rating (scale of 0 to 100), Windgrass ([11]; Preemergence, 31 g ai/ha): 60 | Plant response rating, Windgrass [11, 16]: 75 | Plant response rating, Windgrass [11, 17]: 90 | Plant response rating, Windgrass [11, 18]: 100 | Plant response rating, Windgrass [11, 19]: 80 | Russian Thistle plant response rating [12, 13]: 75 | Plant response rating, Russian Thistle [12, 14]: 90 | Plant response rating, Russian Thistle [12, 15]: 90 | Plant response rating (scale of 0 to 100), Russian Thistle ([12]; Preemergence, 31 g ai/ha): 0 | Plant response rating, Russian Thistle [12, 16]: 0 | Plant response rating, Russian Thistle [12, 17]: 15 | Plant response rating, Russian Thistle [12, 18]: 35 | Plant response rating, Russian Thistle [12, 19]: 85
